Assay results taken from US20120156648A1, “APPARATUS AND METHOD FOR DELIVERING A THERAPEUTIC AGENT TO DENTAL TISSUE” (BUCKEYE DENTAL, LLC, priority 2010, published 2012).

Test: In vitro model of drug delivery: HP gel into extracted human teeth by MACROESIS vs diffusion, HP eluted into water measured by colorimetric kit / UV-Vis at 550 nm
Format: in vitro ADME
Settings: for HP concentration in receiving medium (distilled water): below threshold of reliable detection, excluded from analysis
Description: MACROESIS™ drug delivery system uses an AC electrical field to push active pharmaceutical agents through biological membranes, such as peroxide gels into the layers of tooth enamel. Current methods of chair-side whitening involve applying a gel which is either self-activating, or activated by heat or UV. Another alternative involves custom trays containing the whitening agent obtained from a dentist used over a 7-10 day period at home (30 min to 2 hours per application). An in vitro model of drug delivery was used in a validity study investigating the delivery of a 35% Carbamide Peroxide gel into extracted human teeth by MACROESIS™.
Fourteen (14) freshly extracted human teeth without detectable caries or restoration were stored in distilled water at 4° C. and used within 1 month of extraction. Teeth were randomly assigned to the diffusion experimental group (6 teeth) or enhanced electrochemical delivery (MACROESIS™) experimental group (6 teeth). Two teeth were randomly assigned to a control group. The experiment was run in two rounds of six teeth each (3 from each treatment group) approximately two weeks apart to show repeatability of results.
The diffusion group received: 66±1 mg 6% HP gel applied evenly to the tooth surface for 20 minutes. The MACROESIS™ group received: 66±1 mg 6% HP gel applied evenly to the tooth surface for 20 minutes using the electrochemical drug delivery device and electrode (FIG. 5A-C). The control group contained one control tooth subjected to the diffusion treatment and one control tooth subjected to the MACROESIS™ treatment.
Following treatment, the teeth were rinsed twice in distilled water and dried. The outer surface of the teeth was covered with two layers of clear nail varnish to fill any defects. […]
The amount of H2O2 that diffused from the dentin was measured by a colorimetric oxidation-reduction reaction kit (HYDROGEN PEROXIDE CHEMets®, VACUettes® and Vacu-vials®, CHEMetrics, Inc., Calverton, Va.). HP concentration was measured by UV-Vis spectroscopy at 550 nm.

HP concentration in receiving medium (distilled water) (1-hour samples): < 0.1 PPM
HP concentration in receiving medium (distilled water) (48-hour samples): < 0.1 PPM
time in which the majority of the HP eluted from the teeth into the water (receiving medium removed at 1 hour, 24 hours and 48 hours): between 1 hour and 24 hours
Structure (SMILES): OO [HP, H2O2]
